Patent US11840686B2, “Modulation of prekallikrein (PKK) expression” (Ionis Pharmaceuticals, Inc., priority 2013, dated 2023)
“And” between values parts separate entries of the source, which are not always exact repeats. Identical values can stand only once.

Experiments:
[1] = tested on: basal vascular permeability; assay: Dose-dependent effect on basal vascular permeability, Evans Blue OD600 (Example 14); assay type: in vivo, mouse; conditions: basal; HOE-140 30 μg ip
Description: The effect of varying doses on ISIS 482584 on basal vascular permeability was evaluated.
Group 1 consisted of 8 mice and was treated with PBS administered subcutaneously twice a week for 3 weeks. No other treatment was administered to Group 1 which served as a control group to measure the basal levels of vascular permeability.
Group 2 consisted of 4 mice and was treated with PBS administered subcutaneously twice a week for 3 weeks. At the end of the treatment period, the mice were intraperitoneally administered 30 μg of HOE-140. Group 2 served as a positive control for inhibition of basal vascular permeability.
Groups 3, 4, 5, 6, 7, and 8 consisted of 8 mice each and were treated with 2.5 mg/kg, 5 mg/kg, 10 mg/kg, 20 mg/kg, 40 mg/kg, or 80 mg/kg (corresponding to 5 mg/kg, 10 mg/kg, 20 mg/kg, 40 mg/kg, 80 mg/kg, or 160 mg/kg per week), respectively of ISIS 482584 administered subcutaneously twice a week for 3 weeks. […] served as the experimental treatment groups for examining the effect of varying doses of ISIS 482584 on basal vascular permeability.
All the groups were then injected with 30 mg/kg of Evans Blue solution in the tail vein. The mice were sacrificed 30 min after the Evans Blue solution administration and colons, feet, and ears were harvested and examined for permeability defects. Blood samples were taken through cardiac puncture.
The harvested tissues from the feet, colon, and ears were placed in formamide solution overnight to leach out the Evans Blue dye. The formamide solution containing feet and ear tissue was heated to 55° C. and left overnight. Higher OD values are associated with higher levels of permeability.

human PKK mRNA [2] = assay: Antisense inhibition of human PKK mRNA in HepaRG cells, 5,000 nM (Example 2); assay type: cell-based; conditions: HepaRG cells, 5,000 nM, electroporation, 24 hours
Outline: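 Percent inhibition of PKK mRNA is reported relative to untreated cells, after adjustment for total RNA by RIBOGREEN. Gapmers of 16–20 nucleosides with 2′-MOE wings were delivered at 5,000 nM by electroporation into HepaRG cells and left for roughly 24 hours before RNA isolation.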

human PKK mRNA [3] = assay: Dose-dependent antisense inhibition of human PKK in HepaRG cells, 0.19-5.00 uM (Example 5); assay type: cell-based; conditions: 4 point dose response curve (0.19-5.0 μM), HepaRG cells, electroporation
Outline: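 HepaRG cells (20,000/well) were electroporated with antisense oligonucleotide at 0.19, 0.56, 1.67 and 5.00 μM and treated for about 16 hours. PKK mRNA was quantified by qRT-PCR with primer probe set RTS3454, normalised to RIBOGREEN total RNA, and IC50 was derived per oligonucleotide.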

Compound	OD600 nm of Evans Blue dye, Colon [1]	OD600 nm of Evans Blue dye, Ears [1]	OD600 nm of Evans Blue dye, Feet [1]	inhibition of human PKK mRNA (human PKK mRNA [2])	IC50 (human PKK mRNA [3])
NC(N)=NCCC[C@@H](N)C(=O)N[C@@H](CCCN=C(N)N)C(=O)N1CCC[C@H]1C(=O)N1C[C@H](O)C[C@H]1C(=O)NCC(=O)N[C@@H](Cc1cccs1)C(=O)N[C@@H](CO)C(=O)N1Cc2ccccc2C[C@@H]1C(=O)N1[C@H](C(=O)N[C@@H](CCCN=C(N)N)C(=O)O)C[C@@H]2CCCC[C@@H]21 [HOE-140, Icatibant, reference compound]	0.24	0.047	0.09	–	–
Tes Ges mCes Aes Aes Gds Tds mCds Tds mCds Tds Tds Gds Gds mCds Aes Aes Aes mCes Ae [ISIS 546254]	–	–	–	95%	200 nM and 300 nM
